≈ marks a conversion by molar mass, not a printed value. Where two headings read alike, the source gives them in different places.
Assays:
[1] = target: T1, PBP3 from Pseudomonas aeruginosa (PAO1) (Pseudomonas aeruginosa, UniProt G3XD46); test: Bocillin-FL fluorescence polarization competition binding, P. aeruginosa PBP3; details: Binding affinity to P. aeruginosa PBP3; fluorescence polarization competition binding assay using Bocillin-FL; read-out: P. aeruginosa PBP3 Potency
T1 construct: made in house
Method in brief: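 Purified PBP was preincubated with inhibitor (E. coli PBP3 1.5 μM, 30 min; P. aeruginosa PBP3 0.75 μM, A. baumannii PBP3 0.2 μM and PBP1a 1 μM, 15 min), then Bocillin-FL (0.1 μM; 0.05 μM for PBP1a) added and FP read up to 60 min. EC50 = 50% loss of bound probe.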

[2] = tested on: N. gonorrhoeae ATCC 49226; test: Liquid broth MIC in Fastidious broth; details: Neisseria gonorrhoeae
N. gonorrhoeae FA1090 = test: Liquid broth MIC in Fastidious broth; details: Neisseria gonorrhoeae
N. gonorrhoeae WHO G = test: Liquid broth MIC in Fastidious broth; details: Neisseria gonorrhoeae
N. gonorrhoeae WHO M = test: Liquid broth MIC in Fastidious broth; details: Neisseria gonorrhoeae
N. gonorrhoeae WHO X = test: Liquid broth MIC in Fastidious broth; details: Neisseria gonorrhoeae
P. aeruginosa ATCC 27853 = test: microbe, parasite or virus in culture; type: cell-based; details: Pseudomonas aeruginosa, ATCC27853, read-out: Minimum inhibitory concentration, P. aeruginosa ATCC 27853
P. aeruginosa CDC-0054 = test: microbe, parasite or virus in culture; type: cell-based; details: Pseudomonas aeruginosa, CDC0054, read-out: Minimum inhibitory concentration, P. aeruginosa CDC-0054
P. aeruginosa CDC-0090 = test: microbe, parasite or virus in culture; type: cell-based; details: Pseudomonas aeruginosa, CDC0090, read-out: Minimum inhibitory concentration, P. aeruginosa CDC-0090
A. baumannii CDC-0036 = test: microbe, parasite or virus in culture; type: cell-based; details: Acinetobacter baumannii, CDC0036, read-out: MIC, A. baumannii CDC-0036
A. baumannii CDC-0083 = test: microbe, parasite or virus in culture; type: cell-based; details: Acinetobacter baumannii, CDC0083, read-out: MIC, A. baumannii CDC-0083
[3] = tested on: B. humptydooensis ATCC BAA-2767; test: microbe, parasite or virus in culture; type: cell-based; details: Burkholderia humptydooensis, ATCCBAA2767, read-out: Minimum inhibitory concentration (MIC), B. humptydooensis ATCC BAA-2767
P. aeruginosa CDC-0110 = test: microbe, parasite or virus in culture; type: cell-based; details: Pseudomonas aeruginosa, CDC0110, read-out: Minimum inhibitory concentration, P. aeruginosa CDC-0110
[4] = ATCC49226, read-out: Minimum Inhibitory Concentration (MIC), N. gonorrhoeae ATCC 49226
[5] = FA1090, read-out: Minimum Inhibitory Concentration (MIC), N. gonorrhoeae FA 1090
[6] = read-out: Minimum Inhibitory Concentration (MIC), N. gonorrhoeae WHO G
[7] = read-out: Minimum Inhibitory Concentration (MIC), N. gonorrhoeae WHO M
[8] = read-out: Minimum Inhibitory Concentration (MIC), N. gonorrhoeae WHO X
[9] = ATCC49226, read-out: Minimum Inhibitory Concentration, ATCC 49226
[10] = FA1090, read-out: Minimum Inhibitory Concentration, FA 1090
[11] = read-out: Minimum Inhibitory Concentration, WHO G
[12] = read-out: Minimum Inhibitory Concentration, WHO M
[13] = read-out: Minimum Inhibitory Concentration, WHO X

T1 sequence (G3XD46 whole entry): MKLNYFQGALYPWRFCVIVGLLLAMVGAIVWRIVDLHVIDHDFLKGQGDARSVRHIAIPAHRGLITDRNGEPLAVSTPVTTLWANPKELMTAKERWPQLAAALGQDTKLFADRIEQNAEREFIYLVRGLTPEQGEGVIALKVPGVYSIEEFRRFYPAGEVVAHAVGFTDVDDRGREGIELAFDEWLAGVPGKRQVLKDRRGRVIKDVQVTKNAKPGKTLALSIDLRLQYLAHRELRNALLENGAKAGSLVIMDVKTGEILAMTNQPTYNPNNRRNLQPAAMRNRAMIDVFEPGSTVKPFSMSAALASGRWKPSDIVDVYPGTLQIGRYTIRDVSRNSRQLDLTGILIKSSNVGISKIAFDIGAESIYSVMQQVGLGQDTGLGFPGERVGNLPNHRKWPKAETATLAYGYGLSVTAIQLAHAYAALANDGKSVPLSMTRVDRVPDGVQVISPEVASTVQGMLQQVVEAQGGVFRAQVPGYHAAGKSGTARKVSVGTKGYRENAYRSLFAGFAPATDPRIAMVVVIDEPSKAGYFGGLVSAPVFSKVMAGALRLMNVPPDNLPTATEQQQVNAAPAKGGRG

SMILES	IC50 [1]	MIC [2, 4]	MIC (N. gonorrhoeae FA1090; [5])	MIC (N. gonorrhoeae WHO G; [6])	MIC (N. gonorrhoeae WHO M; [7])	MIC (N. gonorrhoeae WHO X; [8])	MIC (P. aeruginosa ATCC 27853)	MIC (P. aeruginosa CDC-0054)	MIC (P. aeruginosa CDC-0090)	MIC (A. baumannii CDC-0036)	MIC (A. baumannii CDC-0083)	MIC [3]	MIC (P. aeruginosa CDC-0110)	MIC [2, 9]	MIC (N. gonorrhoeae FA1090; [10])	MIC (N. gonorrhoeae WHO G; [11])	MIC (N. gonorrhoeae WHO M; [12])	MIC (N. gonorrhoeae WHO X; [13])
O=C(O)c1cccc2c1OB(O)[C@@H](NC(=O)[C@@H](NC(=O)c1cnc3n(c1=O)CCS3)c1ccc(P(=O)(O)O)cc1)C2 (single isomer, unassigned) [Example 196]	50 to 250 µM	16 to 32 µg/mL (≈ 26.7 to 53.3 µM)	4 to 8 µg/mL (≈ 6.66 to 13.3 µM)	16 to 32 µg/mL (≈ 26.7 to 53.3 µM)	16 to 32 µg/mL (≈ 26.7 to 53.3 µM)	16 to 32 µg/mL (≈ 26.7 to 53.3 µM)	–	–	–	–	–	–	–	–	–	–	–	–
O=C(O)c1cccc2c1OB(O)[C@@H](NC(=O)[C@H](NC(=O)c1cnc3n(c1=O)CCS3)c1ccc(P(=O)(O)O)cc1)C2 (single isomer, unassigned) [Example 197]	< 10 µM	16 to 32 µg/mL (≈ 26.7 to 53.3 µM)	1 to 2 µg/mL (≈ 1.67 to 3.33 µM)	4 to 8 µg/mL (≈ 6.66 to 13.3 µM)	4 to 8 µg/mL (≈ 6.66 to 13.3 µM)	16 to 32 µg/mL (≈ 26.7 to 53.3 µM)	–	–	–	–	–	–	–	–	–	–	–	–
CCN1CCN(C(=O)NC(C(=O)N[C@H]2Cc3cccc(C(=O)O)c3OB2O)c2ccc(P(=O)(O)O)c(F)c2O)C(=O)C1=O (stereo partly drawn) [Example 198, (3R)-3-(2-(4-ethyl-2,3-dioxopiperazine-1-carboxamido)-2-(3-fluoro-2-hydroxy-4-phosphonophenyl)acetamido)-2-hydroxy-3,4-dihydro-2H-benzo[e][1,2]oxaborinine-8-carboxylic acid]	10 to 50 µM	< 1 µg/mL	< 1 µg/mL	< 1 µg/mL	< 1 µg/mL	4 to 8 µg/mL (≈ 6.43 to 12.9 µM)	–	–	–	–	–	–	–	–	–	–	–	–
O=C(NCCN1CCN(C(=O)NC(C(=O)N[C@H]2Cc3ccc(F)c(C(=O)O)c3OB2O)c2cc(F)c(O)c(O)c2Cl)C(=O)C1=O)c1ccccc1 (stereo partly drawn) [Example 207, (3R)-3-(2-(4-(2-benzamidoethyl)-2,3-dioxopiperazine-1-carboxamido)-2-(2-chloro-5-fluoro-3,4-dihydroxyphenyl)acetamido)-7-fluoro-2-hydroxy-3,4-dihydro-2H-benzo[e][1,2]oxaborinine-8-carboxylic acid]	–	16 to 32 µg/mL (≈ 21.9 to 43.8 µM)	4 to 8 µg/mL (≈ 5.48 to 11 µM)	16 to 32 µg/mL (≈ 21.9 to 43.8 µM)	16 to 32 µg/mL (≈ 21.9 to 43.8 µM)	> 64 µg/mL	2 to 4 µg/mL (≈ 2.74 to 5.48 µM)	2 to 4 µg/mL (≈ 2.74 to 5.48 µM)	< 1 µg/mL	8 to 16 µg/mL (≈ 11 to 21.9 µM)	2 to 4 µg/mL (≈ 2.74 to 5.48 µM)	< 1 µg/mL	< 1 µg/mL	–	–	–	–	–
CN(CCN1CCN(C(=O)N[C@@H](C(=O)N[C@H]2Cc3ccc(F)c(C(=O)O)c3OB2O)c2cc(F)c(O)c(O)c2Cl)C(=O)C1=O)Cc1cncc(O)c1 [Example 208, (R)-3-((R)-2-(2-chloro-5-fluoro-3,4-dihydroxyphenyl)-2-(4-(2-(((5-hydroxypyridin-3-yl)methyl)(methyl)amino)ethyl)-2,3-dioxopiperazine-1-carboxamido)acetamido)-7-fluoro-2-hydroxy-3,4-dihydro-2H-benzo[e][1,2]oxaborinine-8-carboxylic acid]	–	4 to 8 µg/mL (≈ 5.36 to 10.7 µM)	1 to 2 µg/mL (≈ 1.34 to 2.68 µM)	4 to 8 µg/mL (≈ 5.36 to 10.7 µM)	4 to 8 µg/mL (≈ 5.36 to 10.7 µM)	> 64 µg/mL	< 1 µg/mL	2 to 4 µg/mL (≈ 2.68 to 5.36 µM)	< 1 µg/mL	2 to 4 µg/mL (≈ 2.68 to 5.36 µM)	< 1 µg/mL	< 1 µg/mL	< 1 µg/mL	–	–	–	–	–
CN(CCN1CCN(C(=O)N[C@@H](C(=O)N[C@H]2Cc3ccc(F)c(C(=O)O)c3OB2O)c2cc(F)c(O)c(O)c2Cl)C(=O)C1=O)Cc1ccc(N)nc1 [Example 209, (R)-3-((R)-2-(4-(2-(((6-aminopyridin-3-yl)methyl)(methyl)amino)ethyl)-2,3-dioxopiperazine-1-carboxamido)-2-(2-chloro-5-fluoro-3,4-dihydroxyphenyl)acetamido)-7-fluoro-2-hydroxy-3,4-dihydro-2H-benzo[e][1,2]oxaborinine-8-carboxylic acid]	–	4 to 8 µg/mL (≈ 5.36 to 10.7 µM)	1 to 2 µg/mL (≈ 1.34 to 2.68 µM)	4 to 8 µg/mL (≈ 5.36 to 10.7 µM)	4 to 8 µg/mL (≈ 5.36 to 10.7 µM)	> 64 µg/mL	< 1 µg/mL	2 to 4 µg/mL (≈ 2.68 to 5.36 µM)	< 1 µg/mL	2 to 4 µg/mL (≈ 2.68 to 5.36 µM)	< 1 µg/mL	< 1 µg/mL	< 1 µg/mL	–	–	–	–	–
O=C(NCCCN1CCN(C(=O)NC(C(=O)N[C@H]2Cc3ccc(F)c(C(=O)O)c3OB2O)c2cc(F)c(O)c(O)c2Cl)C(=O)C1=O)c1nccs1 (stereo partly drawn) [Example 211, (3R)-3-(2-(2-chloro-5-fluoro-3,4-dihydroxyphenyl)-2-(2,3-dioxo-4-(3-(thiazole-2-carboxamido)propyl)piperazine-1-carboxamido)acetamido)-7-fluoro-2-hydroxy-3,4-dihydro-2H-benzo[e][1,2]oxaborinine-8-carboxylic acid]	–	16 to 32 µg/mL (≈ 21.3 to 42.6 µM)	1 to 2 µg/mL (≈ 1.33 to 2.66 µM)	16 to 32 µg/mL (≈ 21.3 to 42.6 µM)	16 to 32 µg/mL (≈ 21.3 to 42.6 µM)	> 64 µg/mL	2 to 4 µg/mL (≈ 2.66 to 5.33 µM)	2 to 4 µg/mL (≈ 2.66 to 5.33 µM)	< 1 µg/mL	2 to 4 µg/mL (≈ 2.66 to 5.33 µM)	< 1 µg/mL	< 1 µg/mL	< 1 µg/mL	–	–	–	–	–
O=C(O)c1c(F)ccc2c1OB(O)[C@@H](NC(=O)[C@H](NC(=O)N1CCN(CCNC(=O)[C@@H]3CCCN3)C(=O)C1=O)c1cc(F)c(O)c(O)c1Cl)C2 [Example 229, (R)-3-((R)-2-(2-chloro-5-fluoro-3,4-dihydroxyphenyl)-2-(2,3-dioxo-4-(2-((S)-pyrrolidine-2-carboxamido)ethyl)piperazine-1-carboxamido)acetamido)-7-fluoro-2-hydroxy-3,4-dihydro-2H-benzo[e][1,2]oxaborinine-8-carboxylic acid]	< 10 µM	16 to 32 µg/mL (≈ 22.1 to 44.3 µM)	4 to 8 µg/mL (≈ 5.53 to 11.1 µM)	4 to 8 µg/mL (≈ 5.53 to 11.1 µM)	4 to 8 µg/mL (≈ 5.53 to 11.1 µM)	> 64 µg/mL	< 1 µg/mL	2 to 4 µg/mL (≈ 2.77 to 5.53 µM)	2 to 4 µg/mL (≈ 2.77 to 5.53 µM)	2 to 4 µg/mL (≈ 2.77 to 5.53 µM)	< 1 µg/mL	–	2 to 4 µg/mL (≈ 2.77 to 5.53 µM)	–	–	–	–	–
O=C(CN1CCN(C(=O)NC(C(=O)N[C@H]2Cc3ccc(F)c(C(=O)O)c3OB2O)c2cc(F)c(O)c(O)c2Cl)C(=O)C1=O)NCc1ccc(O)cc1 (stereo partly drawn) [Example 236, (3R)-3-(2-(2-chloro-5-fluoro-3,4-dihydroxyphenyl)-2-(4-(2-((4-hydroxybenzyl)amino)-2-oxoethyl)-2,3-dioxopiperazine-1-carboxamido)acetamido)-7-fluoro-2-hydroxy-3,4-dihydro-2H-benzo[e][1,2]oxaborinine-8-carboxylic acid]	< 10 µM	–	–	–	–	–	–	–	–	8 to 16 µg/mL (≈ 10.7 to 21.5 µM)	> 128 µg/mL	2 to 4 µg/mL (≈ 2.68 to 5.36 µM)	–	–	–	–	–	–
O=C(NCCCN1CCN(C(=O)N[C@@H](C(=O)N[C@H]2Cc3ccc(F)c(C(=O)O)c3OB2O)c2cc(F)c(O)c(O)c2Cl)C1=O)c1ccccc1 [Example 253, (R)-3-((R)-2-(3-(3-benzamidopropyl)-2-oxoimidazolidine-1-carboxamido)-2-(2-chloro-5-fluoro-3,4-dihydroxyphenyl)acetamido)-7-fluoro-2-hydroxy-3,4-dihydro-2H-benzo[e][1,2]oxaborinine-8-carboxylic acid]	< 10 µM	–	–	–	–	–	2 to 4 µg/mL (≈ 2.79 to 5.59 µM)	8 to 16 µg/mL (≈ 11.2 to 22.4 µM)	2 to 4 µg/mL (≈ 2.79 to 5.59 µM)	< 1 µg/mL	< 1 µg/mL	–	2 to 4 µg/mL (≈ 2.79 to 5.59 µM)	16 to 32 µg/mL (≈ 22.4 to 44.7 µM)	1 to 2 µg/mL (≈ 1.4 to 2.79 µM)	16 to 32 µg/mL (≈ 22.4 to 44.7 µM)	4 to 8 µg/mL (≈ 5.59 to 11.2 µM)	> 64 µg/mL
O=C(NCCS(=O)(=O)N1CCN(C(=O)NC(C(=O)N[C@H]2Cc3ccc(F)c(C(=O)O)c3OB2O)c2cc(F)c(O)c(O)c2Cl)C1=O)c1ccccc1 (stereo partly drawn) [Example 260, (3R)-3-(2-(3-((2-benzamidoethyl)sulfonyl)-2-oxoimidazolidine-1-carboxamido)-2-(2-chloro-5-fluoro-3,4-dihydroxyphenyl)acetamido)-7-fluoro-2-hydroxy-3,4-dihydro-2H-benzo[e][1,2]oxaborinine-8-carboxylic acid]	< 10 µM	–	–	–	–	–	2 to 4 µg/mL (≈ 2.61 to 5.22 µM)	2 to 4 µg/mL (≈ 2.61 to 5.22 µM)	2 to 4 µg/mL (≈ 2.61 to 5.22 µM)	2 to 4 µg/mL (≈ 2.61 to 5.22 µM)	< 1 µg/mL	–	2 to 4 µg/mL (≈ 2.61 to 5.22 µM)	16 to 32 µg/mL (≈ 20.9 to 41.8 µM)	4 to 8 µg/mL (≈ 5.22 to 10.4 µM)	16 to 32 µg/mL (≈ 20.9 to 41.8 µM)	16 to 32 µg/mL (≈ 20.9 to 41.8 µM)	> 64 µg/mL
